ChEMBL document CHEMBL1131782, “Synthesis, biological activity, and absolute stereochemical assignment of NPS 1392: a potent and stereoselective NMDA receptor antagonist” (Bioorg Med Chem Lett, 1999)

Legend:
Glutamate NMDA receptor [1] = assay: Potency towards NMDA receptor measured as inhibition of (+)-[3-3H]MK-801 binding from synaptic plasma membrane obtained from rat cortex
Glutamate NMDA receptor [2] = assay: Functional NMDA receptor antagonism expressed as inhibition of NMDA/glycine induced increase in cytosolic calcium in cultured rat cerebellar granule cells

C[C@@H](CN)C(c1cccc(F)c1)c1cccc(F)c1
IC50 (Glutamate NMDA receptor [1]): 141 nM | IC50 (Glutamate NMDA receptor [2]): 75 nM

NCCC(c1cccc(F)c1)c1cccc(F)c1
IC50 (Glutamate NMDA receptor [1]): 230 nM | IC50 (Glutamate NMDA receptor [2]): 63 nM

C[C@H](CN)C(c1cccc(F)c1)c1cccc(F)c1
IC50 (Glutamate NMDA receptor [1]): 2000 nM | IC50 (Glutamate NMDA receptor [2]): 384 nM
